In patent US6995183B2, “Adamantylglycine-based inhibitors of dipeptidyl peptidase IV and methods” (Bristol Myers Squibb Company, priority 2003, dated 2006):
Where two headings read alike, the source gives them in different places.

Experiments:
[1] = target: T1, Porcine Dipeptidyl Peptidase IV (Sus scrofa, UniProt P22411); experiment: Assay of Porcine Dipeptidyl Peptidase IV, steady-state inhibition constants (Ki); type: biochemical; settings: DPP-IV
T1 construct: left at 37° C. for 18 hours to facilitate cleavage of DPP-4 from cell membranes; from tissue; host or cells: pig kidney cortex
Protocol: DPP-4 inhibitor activity of the compounds of the invention may be determined by use of an in vitro assay system which measures the potentiation of inhibition of DPP-4.
Porcine enzyme was purified as previously described in reference (2) below, with several modifications. Kidneys from 15-20 animals were obtained, and the cortex was dissected away and frozen at −80° C. Frozen tissue (2000-2500 g) was homogenized in 12 L of 0.25 M sucrose in a Waring blender. The homogenate then was left at 37° C. for 18 hours to facilitate cleavage of DPP-4 from cell membranes. After the cleavage step, the homogenate was clarified by centrifugation at 7000×g for 20 min at 4° C., and the supernatant was collected. […]
After dialysis against 20 mM Na2HPO4, pH 7.4, the preparation was clarified by centrifugation at 10,000×g. […] Purity of column fractions was analyzed by reducing SDS-PAGE, and the purest fractions were pooled and concentrated. […]
Enzyme was assayed under steady-state conditions as previously described in reference (2) below with gly-pro-p-nitroanilide as substrate, with the following modifications. […] A standard curve for p-nitroaniline absorbance was obtained at the beginning of each experiment, and enzyme catalyzed p-nitroaniline production was quantitated from the standard curve. […]

plasma DPP-IV = target: T2, plasma DPP-IV (Rattus norvegicus, UniProt P14740); experiment: Rat ex vivo plasma DPP-IV inhibition assay; type: in vivo, Zucker fa/fa rat; settings: oral; for inhibition at 3 µmol/kg: rat, 3 μmol/kg
T2 construct: from tissue; host or cells: plasma of male Zucker fa/fa rats (Harlan)

Zucker^fa/fa rat = experiment: Oral glucose tolerance test (OGTT) in Zucker fa/fa rats; type: in vivo; settings: for glucose control after oral glucose challenge (in words): rodent model of impaired glucose homeostasis
Description: In vivo evaluation of DPP-IV inhibitors has supported the connection between DPP-IV inhibition, increases in plasma insulin levels, and an improvement in glucose tolerance.^1 Several compounds in the present series are potent inhibitors of DPP-IV in vitro. As such, these inhibitors were selected to determine the effects of DPP-IV inhibition ex vivo and on glucose tolerance in Zucker^fa/fa rat. The Zucker^fa/fa rat is a frequently used model in type II diabetes and obesity research. […] Plasma glucose levels were then monitored over a 2 h period. Columns 3 and 4 show the ex vivo plasma DPP-IV inhibition activity. […] In contrast, the adamantyl inhibitors show good inhibitory activity in the ex vivo assay, even at extended time points.
Male Zucker^fa/fa rats (Harlan) weighing between 400 and 450 g were housed in a room that was maintained on a 12 h light /dark cycle and were allowed free access to normal rodent chow and tap water. The day before the experiment, the rats were weighed and divided into control and treated groups of six. Rats were fasted 17 h prior to the start of the study. […] Two blood samples were collected at −30 and 0 min by tail bleed. Glucose (2 g/kg) was administered orally at 0 min. Additional blood samples were collected at 15, 30, 60, 90 and 120 min. Blood samples were collected into EDTA containing tubes from Starstedt. Plasma glucose was determined by Cobas Mira (Roche Diagnostics) by the glucose oxidation method.

[2] = Solution stability of 2-cyano-pyrrolidines; type: physicochemical
Protocol: In experiments at pH=7.2 and 39° C., the greater degree of β-branching the greater degree of stability associated with the compound. […] These are depected in the table below.

T2 sequence (P14740 37-767 limits assumed): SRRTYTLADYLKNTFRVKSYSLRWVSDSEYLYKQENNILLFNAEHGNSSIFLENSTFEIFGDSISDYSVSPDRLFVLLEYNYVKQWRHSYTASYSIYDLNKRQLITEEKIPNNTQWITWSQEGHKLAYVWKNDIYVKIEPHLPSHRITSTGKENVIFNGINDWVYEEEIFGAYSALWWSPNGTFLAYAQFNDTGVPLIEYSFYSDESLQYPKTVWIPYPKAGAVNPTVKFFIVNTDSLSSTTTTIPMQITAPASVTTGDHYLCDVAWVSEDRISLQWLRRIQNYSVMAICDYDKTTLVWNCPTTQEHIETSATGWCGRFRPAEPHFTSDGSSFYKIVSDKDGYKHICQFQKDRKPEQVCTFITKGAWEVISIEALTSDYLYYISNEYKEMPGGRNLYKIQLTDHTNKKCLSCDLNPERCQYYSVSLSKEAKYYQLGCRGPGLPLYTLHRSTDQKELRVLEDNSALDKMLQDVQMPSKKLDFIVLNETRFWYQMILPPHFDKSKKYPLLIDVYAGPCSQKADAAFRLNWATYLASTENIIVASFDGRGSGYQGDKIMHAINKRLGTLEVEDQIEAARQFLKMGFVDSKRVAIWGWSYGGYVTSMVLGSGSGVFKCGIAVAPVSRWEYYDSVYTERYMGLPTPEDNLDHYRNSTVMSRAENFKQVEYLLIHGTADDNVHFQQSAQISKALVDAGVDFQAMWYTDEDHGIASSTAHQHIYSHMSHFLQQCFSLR
T1 sequence (P22411 38-766 limits assumed): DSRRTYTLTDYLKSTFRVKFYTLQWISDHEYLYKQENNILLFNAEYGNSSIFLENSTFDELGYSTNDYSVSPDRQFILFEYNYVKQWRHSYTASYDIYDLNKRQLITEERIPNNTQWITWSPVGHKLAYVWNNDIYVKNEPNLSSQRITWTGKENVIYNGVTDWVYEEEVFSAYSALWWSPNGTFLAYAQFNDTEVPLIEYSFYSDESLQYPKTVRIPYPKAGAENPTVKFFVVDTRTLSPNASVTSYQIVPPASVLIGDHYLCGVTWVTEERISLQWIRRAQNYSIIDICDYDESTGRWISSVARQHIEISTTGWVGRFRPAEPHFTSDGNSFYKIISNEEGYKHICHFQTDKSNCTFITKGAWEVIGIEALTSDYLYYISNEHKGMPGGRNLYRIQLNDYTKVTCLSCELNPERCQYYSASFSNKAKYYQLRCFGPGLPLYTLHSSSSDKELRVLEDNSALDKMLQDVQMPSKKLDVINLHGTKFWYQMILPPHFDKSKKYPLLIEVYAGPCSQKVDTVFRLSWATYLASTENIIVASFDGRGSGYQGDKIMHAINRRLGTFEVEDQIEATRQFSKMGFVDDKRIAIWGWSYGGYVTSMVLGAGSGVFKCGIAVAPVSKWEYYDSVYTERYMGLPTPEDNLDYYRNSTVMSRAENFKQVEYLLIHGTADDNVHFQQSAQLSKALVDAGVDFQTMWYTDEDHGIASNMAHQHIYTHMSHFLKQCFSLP

N#CC1CC2CC2N1C(=O)[C@@H](N)C12CC3CC(O)(CC(O)(C3)C1)C2.O=C(O)C(F)(F)F (stereo in doubt) [Example 8, (S)-3,5-Dihydroxyadamantylglycine-L-cis-4,5-methanoprolinenitrile TFA salt]
Ki [1]: 17 nM | % Inhibition in Rat Ex Vivo assay 3 μmol/kg 0.5 h post dose (plasma DPP-IV; 0.5 h post dose): 80% | % Inhibition in Rat Ex Vivo assay 3 μmol/kg 4 h post dose (plasma DPP-IV; 4 h post dose): 67%

CC12CC3(C)CC(O)(C1)CC([C@H](N)C(=O)N1CCCC1)(C2)C3 [Example 5, (3-hydroxy-5,7-dimethyladamant-1-yl)-glycine pyrrolidine amide]
Ki [1]: 133 nM | inhibition at 3 µmol/kg (plasma DPP-IV; 0.5 h post dose, read-out: % Inhibition in Rat Ex Vivo assay 3 μmol/kg 0.5 h post dose): 70% | inhibition at 3 µmol/kg (plasma DPP-IV; 4 h post dose, read-out: % Inhibition in Rat Ex Vivo assay 3 μmol/kg 4 h post dose): 66% | Glucose Lowering at 4 h; % AUC's, compared to control (Zucker^fa/fa rat; oral, 3 μmol/kg, oral glucose 2 g/kg): −39%

N#C[C@@H]1CCCC1C(=O)C(N)C12CC3CC(CC(O)(C3)C1)C2 (stereo partly shown) [Example 9]
glucose control after oral glucose challenge (in words) (Zucker^fa/fa rat): good glucose control

CC[C@H](C)[C@H](N)C(=O)N1CCC[C@H]1C#N [Ref. Std 1, iso-Leucine-cyanopyrrolide]
Glucose Lowering at 4 h; % AUC's, compared to control (Zucker^fa/fa rat; dosed at 16 μm/kg): −11% | Glucose Lowering at 4 h; % AUC's, compared to control (Zucker^fa/fa rat; dosed at 200 μm/kg): −19% | glucose control after oral glucose challenge (in words) (Zucker^fa/fa rat): only a slight change in glucose control | half-life ([2]; pH 7.2): 5 h

tert-Leucine-cyanopyrrolide
times more stable than Ref. Std. 1 ([2]; pH=7.2, 39° C., ratio of t1/2): ~6
